The source of these data is ChEMBL document CHEMBL3991601, “The target landscape of clinical kinase drugs” (Science, 2017).

The structures appear in SMILES notation. The source made the active and inactive calls. A value given as a limit tells only on which side of the number the result lay.

Assay [1] deals with Ribosomal protein S6 kinase beta-1 (Homo sapiens, UniProt P23443).
The target in assay [2] is T1, Electron transfer flavoprotein subunit beta (Homo sapiens, UniProt P38117).
T1 sequence (P38117 whole entry): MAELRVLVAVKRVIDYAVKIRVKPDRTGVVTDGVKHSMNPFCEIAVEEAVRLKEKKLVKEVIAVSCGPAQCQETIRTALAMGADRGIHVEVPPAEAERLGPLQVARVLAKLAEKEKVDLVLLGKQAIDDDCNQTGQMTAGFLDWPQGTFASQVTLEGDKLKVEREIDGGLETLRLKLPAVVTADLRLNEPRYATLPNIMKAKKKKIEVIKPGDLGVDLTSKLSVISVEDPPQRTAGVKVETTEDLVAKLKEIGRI

The target of assay [3] is Cyclin-dependent kinase 12 (Homo sapiens, UniProt Q9NYV4).
Cyclin-dependent kinase 12, sequence (Q9NYV4 whole entry): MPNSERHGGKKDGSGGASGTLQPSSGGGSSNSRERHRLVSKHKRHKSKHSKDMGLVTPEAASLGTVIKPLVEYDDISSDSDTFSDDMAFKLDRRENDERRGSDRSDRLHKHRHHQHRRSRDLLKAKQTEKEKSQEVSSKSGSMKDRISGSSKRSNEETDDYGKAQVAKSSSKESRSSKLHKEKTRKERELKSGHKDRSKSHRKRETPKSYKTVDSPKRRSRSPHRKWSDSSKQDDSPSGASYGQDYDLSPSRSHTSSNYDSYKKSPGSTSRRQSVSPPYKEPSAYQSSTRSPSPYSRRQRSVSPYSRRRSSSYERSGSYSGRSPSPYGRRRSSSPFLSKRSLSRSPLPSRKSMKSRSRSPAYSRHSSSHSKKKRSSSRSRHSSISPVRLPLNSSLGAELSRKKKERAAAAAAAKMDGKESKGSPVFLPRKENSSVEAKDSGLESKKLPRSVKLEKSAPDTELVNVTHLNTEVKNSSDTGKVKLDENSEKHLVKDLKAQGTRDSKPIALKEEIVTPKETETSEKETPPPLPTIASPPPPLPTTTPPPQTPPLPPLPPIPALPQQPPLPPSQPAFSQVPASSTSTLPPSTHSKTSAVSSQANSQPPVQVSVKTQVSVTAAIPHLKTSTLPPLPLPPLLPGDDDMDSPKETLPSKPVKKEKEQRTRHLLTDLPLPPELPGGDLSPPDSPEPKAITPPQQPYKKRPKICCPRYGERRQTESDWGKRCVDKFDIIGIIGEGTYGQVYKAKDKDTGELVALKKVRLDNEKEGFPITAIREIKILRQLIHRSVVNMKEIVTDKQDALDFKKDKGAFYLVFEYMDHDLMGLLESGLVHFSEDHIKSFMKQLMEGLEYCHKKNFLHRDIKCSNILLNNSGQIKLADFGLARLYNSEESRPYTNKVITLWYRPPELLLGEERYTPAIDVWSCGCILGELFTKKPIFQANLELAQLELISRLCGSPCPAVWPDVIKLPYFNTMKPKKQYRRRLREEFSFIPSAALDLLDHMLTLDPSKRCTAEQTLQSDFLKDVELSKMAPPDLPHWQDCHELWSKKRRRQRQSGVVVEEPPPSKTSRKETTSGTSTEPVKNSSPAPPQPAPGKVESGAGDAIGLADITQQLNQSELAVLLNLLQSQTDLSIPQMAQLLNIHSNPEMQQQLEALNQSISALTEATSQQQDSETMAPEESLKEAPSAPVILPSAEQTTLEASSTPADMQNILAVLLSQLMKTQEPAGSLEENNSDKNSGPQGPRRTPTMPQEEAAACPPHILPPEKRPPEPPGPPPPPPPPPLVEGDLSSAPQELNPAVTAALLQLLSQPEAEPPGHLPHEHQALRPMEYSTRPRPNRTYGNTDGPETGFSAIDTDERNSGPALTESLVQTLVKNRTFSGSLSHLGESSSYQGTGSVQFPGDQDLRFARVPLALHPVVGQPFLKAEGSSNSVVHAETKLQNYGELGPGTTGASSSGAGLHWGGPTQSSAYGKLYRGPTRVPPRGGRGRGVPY
Assay [4] concerns the target T2, Peroxisomal acyl-coenzyme A oxidase 3 (Homo sapiens, UniProt O15254).
T2 sequence (O15254 whole entry): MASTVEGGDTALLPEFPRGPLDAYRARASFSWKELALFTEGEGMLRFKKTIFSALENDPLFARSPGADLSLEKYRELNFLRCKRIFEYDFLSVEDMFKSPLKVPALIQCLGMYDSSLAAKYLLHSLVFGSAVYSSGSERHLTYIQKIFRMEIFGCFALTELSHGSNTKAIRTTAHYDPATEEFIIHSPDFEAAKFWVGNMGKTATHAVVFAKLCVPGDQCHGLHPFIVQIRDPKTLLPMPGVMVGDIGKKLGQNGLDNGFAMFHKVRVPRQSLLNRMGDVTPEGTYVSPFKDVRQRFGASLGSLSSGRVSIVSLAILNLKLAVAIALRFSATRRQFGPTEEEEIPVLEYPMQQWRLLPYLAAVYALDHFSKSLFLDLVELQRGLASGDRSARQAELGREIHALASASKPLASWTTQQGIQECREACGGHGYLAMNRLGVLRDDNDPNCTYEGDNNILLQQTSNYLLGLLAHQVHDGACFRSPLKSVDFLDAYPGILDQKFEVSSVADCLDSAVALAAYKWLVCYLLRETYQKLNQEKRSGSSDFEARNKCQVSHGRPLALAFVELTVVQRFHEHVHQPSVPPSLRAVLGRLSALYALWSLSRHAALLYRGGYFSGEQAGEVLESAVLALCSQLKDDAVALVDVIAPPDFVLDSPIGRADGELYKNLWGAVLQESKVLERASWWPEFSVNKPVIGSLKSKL

For assay [5], the target named is T3, Mitogen-activated protein kinase kinase kinase 3 (Homo sapiens, UniProt Q99759).
T3 sequence (Q99759 whole entry): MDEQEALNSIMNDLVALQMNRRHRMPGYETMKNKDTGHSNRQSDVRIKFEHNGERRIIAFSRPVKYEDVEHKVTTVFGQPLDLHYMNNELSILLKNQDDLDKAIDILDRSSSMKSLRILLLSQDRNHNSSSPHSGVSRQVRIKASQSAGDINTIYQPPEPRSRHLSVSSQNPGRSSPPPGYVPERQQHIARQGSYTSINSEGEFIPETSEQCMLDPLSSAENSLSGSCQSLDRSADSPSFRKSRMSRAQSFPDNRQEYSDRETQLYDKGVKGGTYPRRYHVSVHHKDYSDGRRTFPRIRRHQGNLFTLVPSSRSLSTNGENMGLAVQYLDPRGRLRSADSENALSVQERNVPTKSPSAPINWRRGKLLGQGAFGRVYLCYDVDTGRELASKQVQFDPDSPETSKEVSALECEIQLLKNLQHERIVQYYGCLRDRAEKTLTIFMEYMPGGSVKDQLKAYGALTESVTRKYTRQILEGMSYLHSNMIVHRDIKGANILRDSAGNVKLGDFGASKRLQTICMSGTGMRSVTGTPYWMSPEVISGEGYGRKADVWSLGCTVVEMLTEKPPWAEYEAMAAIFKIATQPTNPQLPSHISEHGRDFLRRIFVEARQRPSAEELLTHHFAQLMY

Assay [6] deals with Insulin-like growth factor 1 receptor (Homo sapiens, UniProt P08069).
Insulin-like growth factor 1 receptor, sequence (P08069 31-736 limits assumed): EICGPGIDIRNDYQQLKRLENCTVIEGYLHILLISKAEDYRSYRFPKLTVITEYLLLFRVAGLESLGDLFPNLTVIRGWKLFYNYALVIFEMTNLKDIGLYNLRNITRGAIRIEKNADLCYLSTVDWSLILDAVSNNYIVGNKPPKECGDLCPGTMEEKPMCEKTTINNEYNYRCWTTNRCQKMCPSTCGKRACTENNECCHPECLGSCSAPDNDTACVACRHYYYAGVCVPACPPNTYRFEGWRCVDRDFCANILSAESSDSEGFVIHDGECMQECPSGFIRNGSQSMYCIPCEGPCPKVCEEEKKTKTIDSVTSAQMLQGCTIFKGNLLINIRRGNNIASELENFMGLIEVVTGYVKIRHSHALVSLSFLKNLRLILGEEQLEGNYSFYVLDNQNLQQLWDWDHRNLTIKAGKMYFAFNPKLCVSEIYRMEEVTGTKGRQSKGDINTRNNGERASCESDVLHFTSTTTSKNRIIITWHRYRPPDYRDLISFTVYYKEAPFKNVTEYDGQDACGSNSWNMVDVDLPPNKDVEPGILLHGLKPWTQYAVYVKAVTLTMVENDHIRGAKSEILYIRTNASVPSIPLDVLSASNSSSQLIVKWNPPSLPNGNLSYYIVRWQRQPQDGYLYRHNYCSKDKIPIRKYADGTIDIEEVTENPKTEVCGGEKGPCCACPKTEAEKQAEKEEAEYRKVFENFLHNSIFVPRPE
Insulin-like growth factor 1 receptor, sequence (P08069 741-1367 limits assumed): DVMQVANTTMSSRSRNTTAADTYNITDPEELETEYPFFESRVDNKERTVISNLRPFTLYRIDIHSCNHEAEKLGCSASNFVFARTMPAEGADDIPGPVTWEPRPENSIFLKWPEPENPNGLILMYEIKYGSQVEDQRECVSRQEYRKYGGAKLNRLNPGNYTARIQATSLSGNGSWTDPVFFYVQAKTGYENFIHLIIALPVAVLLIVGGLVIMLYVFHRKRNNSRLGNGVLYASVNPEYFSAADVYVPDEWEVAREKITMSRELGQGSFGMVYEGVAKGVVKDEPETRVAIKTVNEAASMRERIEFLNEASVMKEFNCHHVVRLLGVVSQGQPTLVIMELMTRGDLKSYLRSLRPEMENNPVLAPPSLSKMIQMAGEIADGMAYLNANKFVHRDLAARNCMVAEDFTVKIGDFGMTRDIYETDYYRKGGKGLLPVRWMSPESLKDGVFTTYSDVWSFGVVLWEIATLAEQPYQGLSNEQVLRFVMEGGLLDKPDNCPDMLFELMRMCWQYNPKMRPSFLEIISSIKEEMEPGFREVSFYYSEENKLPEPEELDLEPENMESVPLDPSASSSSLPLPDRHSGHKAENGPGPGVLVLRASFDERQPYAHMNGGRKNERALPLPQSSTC
In assay [7] the target is T4, Dual specificity mitogen-activated protein kinase kinase 5 (Homo sapiens, UniProt Q13163).
T4 sequence (Q13163 whole entry): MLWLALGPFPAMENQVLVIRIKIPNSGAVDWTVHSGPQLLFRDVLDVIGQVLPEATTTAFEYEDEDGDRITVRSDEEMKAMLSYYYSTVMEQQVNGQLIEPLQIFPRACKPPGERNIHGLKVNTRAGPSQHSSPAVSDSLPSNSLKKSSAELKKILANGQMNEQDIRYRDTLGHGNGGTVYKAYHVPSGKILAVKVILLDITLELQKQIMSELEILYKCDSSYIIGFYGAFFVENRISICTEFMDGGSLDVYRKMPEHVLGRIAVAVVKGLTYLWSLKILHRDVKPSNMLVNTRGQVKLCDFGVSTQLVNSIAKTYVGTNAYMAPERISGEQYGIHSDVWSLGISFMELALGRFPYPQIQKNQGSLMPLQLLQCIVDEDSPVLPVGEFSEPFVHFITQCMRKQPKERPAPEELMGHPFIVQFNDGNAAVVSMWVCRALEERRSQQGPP

Assay [8] concerns the target Receptor-interacting serine/threonine-protein kinase 2 (Homo sapiens, UniProt O43353).
Also: in the data inactive means no Kd found up to 30 µM.

Receptor-interacting serine/threonine-protein kinase 2, sequence (O43353 whole entry): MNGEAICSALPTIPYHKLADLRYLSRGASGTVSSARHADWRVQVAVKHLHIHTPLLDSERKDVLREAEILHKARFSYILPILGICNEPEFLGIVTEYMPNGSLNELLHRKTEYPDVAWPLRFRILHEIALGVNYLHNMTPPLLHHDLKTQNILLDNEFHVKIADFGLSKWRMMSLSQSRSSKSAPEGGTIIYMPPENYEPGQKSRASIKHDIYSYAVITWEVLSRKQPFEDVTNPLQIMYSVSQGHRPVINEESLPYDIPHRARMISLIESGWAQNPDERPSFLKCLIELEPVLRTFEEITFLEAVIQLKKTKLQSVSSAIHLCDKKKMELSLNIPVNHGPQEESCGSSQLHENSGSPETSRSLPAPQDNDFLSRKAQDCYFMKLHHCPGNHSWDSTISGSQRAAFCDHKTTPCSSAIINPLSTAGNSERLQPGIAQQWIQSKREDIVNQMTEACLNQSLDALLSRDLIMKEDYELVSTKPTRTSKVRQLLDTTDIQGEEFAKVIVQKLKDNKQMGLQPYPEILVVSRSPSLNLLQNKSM
Ribosomal protein S6 kinase beta-1, sequence (P23443 whole entry): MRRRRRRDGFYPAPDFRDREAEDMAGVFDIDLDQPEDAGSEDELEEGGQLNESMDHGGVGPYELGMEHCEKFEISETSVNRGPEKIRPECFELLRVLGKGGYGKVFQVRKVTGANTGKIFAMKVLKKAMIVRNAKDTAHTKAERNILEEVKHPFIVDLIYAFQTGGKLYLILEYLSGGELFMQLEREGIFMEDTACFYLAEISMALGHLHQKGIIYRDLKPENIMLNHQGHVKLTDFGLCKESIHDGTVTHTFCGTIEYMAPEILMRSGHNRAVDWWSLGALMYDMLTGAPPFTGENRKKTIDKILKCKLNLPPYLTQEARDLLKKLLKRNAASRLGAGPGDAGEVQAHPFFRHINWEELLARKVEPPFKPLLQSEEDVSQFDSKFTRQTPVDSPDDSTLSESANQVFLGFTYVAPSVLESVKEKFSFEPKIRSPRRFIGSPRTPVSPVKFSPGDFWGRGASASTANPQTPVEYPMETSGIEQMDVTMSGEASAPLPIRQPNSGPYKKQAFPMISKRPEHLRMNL

The Kd is the free concentration of one partner at which half of the binding sites on the other are occupied at equilibrium, for simple one-to-one binding. Consider `CNC(=O)c1ccc(-c2cnc3ncc(Cc4ccc5ncccc5c4)n3n2)cc1F` [CAPMATINIB], for which the Kd in assay [1], in assay [2], in assay [3], in assay [4], in assay [5] and in assay [6] was > 30 µM (inactive) in each case. Further, the Kd in assay [7] and in assay [8] was > 30 µM (inactive) each time.

Consider `CCS(=O)(=O)N1CC(CC#N)(n2cc(-c3ncnc4[nH]ccc34)cn2)C1` [BARICITINIB], for which the Kd in assay [1], in assay [2], in assay [3], in assay [4], in assay [5] and in assay [6] was > 30 µM (inactive) throughout. Further, the Kd in assay [7] and in assay [8] was > 30 µM (inactive) each time.

Consider `CNS(=O)(=O)Nc1nccc(Cc2c(C)c3ccc(Oc4ncccn4)cc3oc2=O)c1F` [AVUTOMETINIB], for which the Kd in assay [1], in assay [2], in assay [3], in assay [4], in assay [5] and in assay [6] was > 30 µM (inactive) each time. Also, the Kd was 2 µM (active) in assay [7] and > 30 µM (inactive) in assay [8].

For `COc1ccc(-c2ccc3c(N4CCOC[C@@H]4C)nc(N4CCOC[C@@H]4C)nc3n2)cc1CO` [AZD-8055], the Kd in assay [1], in assay [2], in assay [3], in assay [4], in assay [5] and in assay [6] was > 30 µM (inactive) each time. The Kd in assay [7] and in assay [8] was > 30 µM (inactive) in each case.

`O=C(O)[C@]1(Cc2cccc(Nc3nccs3)n2)CC[C@@H](Oc2cccc(Cl)c2F)CC1` [MK-5108]: the Kd in assay [1], in assay [2], in assay [3], in assay [4], in assay [5] and in assay [6] was > 30 µM (inactive) in each case. Besides, the Kd in assay [7] and in assay [8] was > 30 µM (inactive) in each case.

Turning to `C[C@@H](Nc1cc(F)cc(F)c1)c1cc(C(=O)N(C)C)cc2c(=O)cc(N3CCOCC3)oc12` [AZD-8186], the Kd in assay [1], in assay [2], in assay [3], in assay [4], in assay [5] and in assay [6] was > 30 µM (inactive) throughout. In addition, the Kd in assay [7] and in assay [8] was > 30 µM (inactive) in each case.

Regarding `Cc1cc2c(F)c(Oc3ncnn4cc(OC[C@@H](C)OC(=O)[C@H](C)N)c(C)c34)ccc2[nH]1` [BRIVANIB ALANINATE], the Kd in assay [1], in assay [2], in assay [3], in assay [4], in assay [5] and in assay [6] was > 30 µM (inactive) in each case. Moreover, the Kd in assay [7] and in assay [8] was > 30 µM (inactive) in each case.

Turning to `C[C@@H]1CN(Cc2ccc(F)cc2)[C@@H](C)CN1C(=O)c1cc2c(C(=O)C(=O)N(C)C)cn(C)c2cc1Cl` [TALMAPIMOD], the Kd in assay [1], in assay [2], in assay [3], in assay [4], in assay [5] and in assay [6] was > 30 µM (inactive) in each case. Moreover, the Kd in assay [7] and in assay [8] was > 30 µM (inactive) in each case.

Regarding `CN1CCC(COc2cnc(-c3cccc(Cn4nc(-c5cccc(C#N)c5)ccc4=O)c3)nc2)CC1` [TEPOTINIB], the Kd in assay [1], in assay [2], in assay [3], in assay [4], in assay [5] and in assay [6] was > 30 µM (inactive) throughout. Also, the Kd in assay [7] and in assay [8] was > 30 µM (inactive) in each case.

For `CNC(=O)c1ccc(C)c(-n2c(C)cc(OCc3ccc(F)cc3F)c(Br)c2=O)c1` [PH-797804], the Kd in assay [1], in assay [2], in assay [3], in assay [4], in assay [5] and in assay [6] was > 30 µM (inactive) throughout. Further, the Kd in assay [7] and in assay [8] was > 30 µM (inactive) throughout.

`N[C@@H]1CCCN(c2c(/C=C3\SC(=O)NC3=O)cccc2-c2ccccc2)C1`: the Kd in assay [1], in assay [2], in assay [3], in assay [4], in assay [5] and in assay [6] was > 30 µM (inactive) in each case. Also, the Kd in assay [7] and in assay [8] was > 30 µM (inactive) each time.

Consider `COc1cc(N2CCC(N3CCN(C)CC3)CC2)ccc1Nc1ncnc(Nc2ccccc2S(=O)(=O)C(C)C)n1` [ASP-3026], for which the Kd is > 30 µM (inactive) in assay [1]; > 30 µM (inactive) in assay [2]; > 30 µM (inactive) in assay [3]; > 30 µM (inactive) in assay [4]; > 30 µM (inactive) in assay [5]; 9.72 µM (active) in assay [6]. For the same molecule, the Kd in assay [7] and in assay [8] was > 30 µM (inactive) in each case.

For the molecule `Cc1cc([C@@H](C)Nc2ccccc2C(=O)O)c2nc(N3CCOCC3)cc(=O)n2c1` [AZD-6482], the Kd in assay [1], in assay [2], in assay [3], in assay [4], in assay [5] and in assay [6] was > 30 µM (inactive) throughout. Also, the Kd in assay [7] and in assay [8] was > 30 µM (inactive) each time.

Consider `CN1CCC(CNc2ccc3ncc(-c4cccc(OC(F)(F)F)c4)n3n2)CC1` [SGI-1776], for which the Kd in assay [1], in assay [2], in assay [3], in assay [4], in assay [5] and in assay [6] was > 30 µM (inactive) throughout. For the same molecule, the Kd in assay [7] and in assay [8] was > 30 µM (inactive) each time.
